Among the data in patent US12018016B2, “Aryl sulfonyl (hydroxy) piperidines as CCR6 inhibitors” (CHEMOCENTRYX, INC., priority 2021, dated 2024) are IC50 values, retold here.

pIC50: −log10 of the molar value.

The assay addresses T1, human CCR6 (Homo sapiens, UniProt P51684).
T1 construct: expressed in transfected cells; host or cells: Ba/F3 cells (mouse pro-B line)
T1 sequence (P51684 1-374): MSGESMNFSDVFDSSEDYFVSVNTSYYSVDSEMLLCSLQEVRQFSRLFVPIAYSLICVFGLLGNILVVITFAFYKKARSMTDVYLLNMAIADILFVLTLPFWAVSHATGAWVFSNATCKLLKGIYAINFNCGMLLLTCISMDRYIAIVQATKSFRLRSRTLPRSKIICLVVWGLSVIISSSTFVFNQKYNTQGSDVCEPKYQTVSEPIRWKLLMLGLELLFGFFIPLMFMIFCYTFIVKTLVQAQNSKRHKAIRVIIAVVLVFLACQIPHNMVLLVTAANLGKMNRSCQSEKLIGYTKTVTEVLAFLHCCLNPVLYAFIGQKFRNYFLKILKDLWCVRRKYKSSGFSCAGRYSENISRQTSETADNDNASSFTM
Nature of the assay: Migration assay (chemotaxis, ChemoTX). The note with it: hCCR6-transfected Ba/F3 cells in human serum, migration to recombinant human CCL20 10 nM, 37° C. 45 minutes; read-out: Potency (IC50 value in the migration assay). In kind it is cell-based. An excerpt:
A chemotaxis assay can be used to determine the efficacy of potential receptor antagonists at blocking the migration mediated through chemokine receptors, such as CCR6. This assay is routinely performed using the ChemoTX® microchamber system with a 5-μm pore-sized polycarbonate membrane. Chemokine receptor-expressing cells are required for such an assay. In this case, Ba/F3 cells (Palacios et al., Nature, 309:126, 1984) transfected with the gene for human CCR6 under control of the CMV promotor were used. To begin such an assay, hCCR6-transfected Ba/F3 cells are first grown for 24 hr in medium supplemented with sodium butyrate, which increases CCR6 transcription via the CMV promotor. The prepared Ba/F3 cells, are collected by centrifugation at 400×g at room temperature, then suspended at 4 million/ml in human serum. The compound being tested is serially diluted from a maximum final concentration of 1 μM (or an equivalent volume of its solvent (DMSO)) and is then added to the cell/serum mixture. Separately, recombinant human CCL20 (MIP-3α/LARC) at its EC50 concentration (10 nM) is placed in the lower wells of the ChemoTX® plate. The 5-μm (pore size) polycarbonate membrane is placed onto the plate, and 20 μL of the cell/compound mixture is transferred onto each well of the membrane. The plates are incubated at 37° C. for 45 minutes, after which the polycarbonate membranes are removed and 5 μl of the DNA-intercalating dye CyQUANT (Invitrogen, Carlsbad, CA) is added to the lower wells. The amount of fluorescence, corresponding to the number of migrated cells, is measured using a Spectrafluor Plus plate reader (TECAN, San Jose, CA).
Regarding `N[C@H]1C[C@H](Nc2cc(-c3ccc(S(=O)(=O)N4CC[C@@H](Nc5ccc(C(F)(F)F)cn5)[C@@H](O)C4)cc3)ccn2)C1` [Compound 128], the pIC50 is greater than 9.00. The result for `N[C@H]1C[C@@H](Nc2cc(-c3ccc(S(=O)(=O)N4CC[C@@H](Nc5ccc(C(F)(F)F)cn5)[C@@H](O)C4)cc3)ccn2)C1` [Compound 129] reads greater than 9.00; that for `CN(c1cc(-c2ccc(S(=O)(=O)N3CC[C@@H](Nc4ccc(C(F)(F)F)cn4)[C@@H](O)C3)cc2)ccn1)C1CCC1` [Compound 130], greater than 9.00; that for `O=S(=O)(c1ccc(-c2ccnc(N3CCC(O)CC3)c2)cc1)N1CC[C@@H](Nc2ccc(C(F)(F)F)cn2)[C@@H](O)C1` [Compound 131], greater than 9.00. Take `CC(C)(O)C1CN(c2cc(-c3ccc(S(=O)(=O)N4CC[C@@H](Nc5ccc(C(F)(F)F)cn5)[C@@H](O)C4)cc3)ccn2)C1` [Compound 132]: the pIC50 is greater than 9.00. As for `O=S(=O)(c1ccc(-c2ccnc(N3CC[C@H](O)C3)c2)cc1)N1CC[C@@H](Nc2ccc(C(F)(F)F)cn2)[C@@H](O)C1` [Compound 133], the pIC50 was greater than 9.00. Consider `O=S(=O)(c1ccc(-c2ccnc(N3CC[C@@H](O)C3)c2)cc1)N1CC[C@@H](Nc2ccc(C(F)(F)F)cn2)[C@@H](O)C1` [Compound 134], for which the pIC50 is greater than 9.00.

For the compound `O=S(=O)(c1ccc(-c2ccnc(N3CC4(COC4)C3)c2)cc1)N1CC[C@@H](Nc2ccc(C(F)(F)F)cn2)[C@@H](O)C1` [Compound 135], the pIC50 was greater than 9.00. `COC1CN(c2cc(-c3ccc(S(=O)(=O)N4CC[C@@H](Nc5ccc(C(F)(F)F)cn5)[C@@H](O)C4)cc3)ccn2)C1` [Compound 136]: the pIC50 is 8.00 to 9.00. The value for `O=S(=O)(c1ccc(-c2ccnc(N3CC(O)C3)c2)cc1)N1CC[C@@H](Nc2ccc(C(F)(F)F)cn2)[C@@H](O)C1` [Compound 137] was greater than 9.00; that for `CN(C)CCN(C)c1cc(-c2ccc(S(=O)(=O)N3CC[C@@H](Nc4ccc(C(F)(F)F)cn4)[C@@H](O)C3)cc2)ccn1` [Compound 138] was greater than 9.00; that for `O=S(=O)(c1ccc(-c2ccnc(N3CCC3)c2)cc1)N1CC[C@@H](Nc2ccc(C(F)(F)F)cn2)[C@@H](O)C1` [Compound 139] was greater than 9.00. In the case of `O=S(=O)(c1ccc(-c2ccnc(NC3CCC3)c2)cc1)N1CC[C@@H](Nc2ccc(C(F)(F)F)cn2)[C@@H](O)C1` [Compound 140], the pIC50 is greater than 9.00. The result for `O=S(=O)(c1ccc(-c2ccnc(N3CC4(CNC4)C3)c2)cc1)N1CC[C@@H](Nc2ccc(C(F)(F)F)cn2)[C@@H](O)C1` [Compound 141] reads 8.00 to 9.00; that for `CN1CC2(C1)CN(c1cc(-c3ccc(S(=O)(=O)N4CC[C@@H](Nc5ccc(C(F)(F)F)cn5)[C@@H](O)C4)cc3)ccn1)C2` [Compound 142], 8.00 to 9.00. The result for `CN(C)C1CCN(c2cc(-c3ccc(S(=O)(=O)N4CC[C@@H](Nc5ccc(C(F)(F)F)cn5)[C@@H](O)C4)cc3)ccn2)CC1` [Compound 143] reads 8.00 to 9.00; that for `O=S(=O)(c1ccc(-c2ccnc(N3CCCCC3)c2)cc1)N1CC[C@@H](Nc2ccc(C(F)(F)F)cn2)[C@@H](O)C1` [Compound 145], greater than 9.00; that for `O=S(=O)(c1ccc(-c2ccnc(N3CCOCC3)c2)cc1)N1CC[C@@H](Nc2ccc(C(F)(F)F)cn2)[C@@H](O)C1` [Compound 146], greater than 9.00. In the case of `Cc1cc(C(N)=O)ncc1-c1ccc(S(=O)(=O)N2CC[C@@H](Nc3ccc(C(F)(F)F)cn3)[C@@H](O)C2)cc1` [Compound 147], the pIC50 was greater than 9.00.

Turning to `Cc1c(-c2ccc(S(=O)(=O)N3CC[C@@H](Nc4ccc(C(F)(F)F)cn4)[C@@H](O)C3)cc2)cnc(N)c1C` [Compound 148], the pIC50 is greater than 9.00. The result for `N#Cc1cnccc1-c1ccc(S(=O)(=O)N2CC[C@@H](Nc3ccc(C(F)(F)F)cn3)[C@@H](O)C2)cc1` [Compound 149] reads 8.00 to 9.00. Consider `COc1nccc(-c2ccc(S(=O)(=O)N3CC[C@@H](Nc4ccc(C(F)(F)F)cn4)[C@@H](O)C3)cc2)c1OC` [Compound 150], for which the pIC50 was greater than 9.00.

Regarding `COc1cnccc1-c1ccc(S(=O)(=O)N2CC[C@@H](Nc3ccc(C(F)(F)F)cn3)[C@@H](O)C2)cc1` [Compound 151], the pIC50 is 8.00 to 9.00. The result for `Cc1cncc(-c2ccc(S(=O)(=O)N3CC[C@@H](Nc4ccc(C(F)(F)F)cn4)[C@@H](O)C3)cc2)c1` [Compound 152] reads greater than 9.00; that for `O=S(=O)(c1ccc(-c2ccncc2CO)cc1)N1CC[C@@H](Nc2ccc(C(F)(F)F)cn2)[C@@H](O)C1` [Compound 153], 8.00 to 9.00; that for `COc1ccc(-c2ccc(S(=O)(=O)N3CC[C@@H](Nc4ccc(C(F)(F)F)cn4)[C@@H](O)C3)cc2)cn1` [Compound 154], 8.00 to 9.00. `COc1nccc(-c2ccc(S(=O)(=O)N3CC[C@@H](Nc4ccc(C(F)(F)F)cn4)[C@@H](O)C3)cc2)c1C` [Compound 155]: the pIC50 is greater than 9.00. The result for `COc1cnc(C)cc1-c1ccc(S(=O)(=O)N2CC[C@@H](Nc3ccc(C(F)(F)F)cn3)[C@@H](O)C2)cc1` [Compound 156] reads greater than 9.00; that for `COc1c(-c2ccc(S(=O)(=O)N3CC[C@@H](Nc4ccc(C(F)(F)F)cn4)[C@@H](O)C3)cc2)ccnc1C` [Compound 157], greater than 9.00. The value for `O=S(=O)(c1ccc(-c2ccnc(N3CCNCC3)c2)cc1)N1CC[C@@H](Nc2ccc(C(F)(F)F)cn2)[C@@H](O)C1` [Compound 158] was 8.00 to 9.00; that for `O=C1Nc2ncc(-c3ccc(S(=O)(=O)N4CC[C@@H](Nc5ccc(C(F)(F)F)cn5)[C@@H](O)C4)cc3)cc2C12CCC2` [Compound 159] was greater than 9.00; that for `Nc1ccc(-c2ccc(S(=O)(=O)N3CC[C@@H](Nc4ccc(C(F)(F)F)cn4)[C@@H](O)C3)cc2)cn1` [Compound 160] was greater than 9.00. The value for `O=S(=O)(c1ccc(-c2ccncc2)cc1)N1CC[C@@H](Nc2ccc(C(F)(F)F)cn2)[C@@H](O)C1` [Compound 161] was greater than 9.00; that for `O=S(=O)(c1ccc(-c2cccnc2)cc1)N1CC[C@@H](Nc2ccc(C(F)(F)F)cn2)[C@@H](O)C1` [Compound 162] was greater than 9.00; that for `Cc1cc(-c2ccc(S(=O)(=O)N3CC[C@@H](Nc4ccc(C(F)(F)F)cn4)[C@@H](O)C3)cc2)ccn1` [Compound 163] was greater than 9.00.

Consider `Cc1cnccc1-c1ccc(S(=O)(=O)N2CC[C@@H](Nc3ccc(C(F)(F)F)cn3)[C@@H](O)C2)cc1` [Compound 164], for which the pIC50 was greater than 9.00. The result for `COc1cc(-c2ccc(S(=O)(=O)N3CC[C@@H](Nc4ccc(C(F)(F)F)cn4)[C@@H](O)C3)cc2)ccn1` [Compound 165] reads 8.00 to 9.00.

`Cc1c(-c2ccc(S(=O)(=O)N3CC[C@@H](Nc4ccc(C(F)(F)F)cn4)[C@@H](O)C3)cc2)ccnc1N` [Compound 166]: the pIC50 was greater than 9.00. The value for `O=C1C[C@H](Nc2ccc(-c3ccc(S(=O)(=O)N4CC[C@@H](Nc5ccc(C(F)(F)F)cn5)[C@@H](O)C4)cc3)cn2)CN1` [Compound 167] was greater than 9.00. The value for `O=C1C[C@@H](Nc2ccc(-c3ccc(S(=O)(=O)N4CC[C@@H](Nc5ccc(C(F)(F)F)cn5)[C@@H](O)C4)cc3)cn2)CN1` [Compound 168] was greater than 9.00; that for `O=C1NCC[C@H]1Nc1ccc(-c2ccc(S(=O)(=O)N3CC[C@@H](Nc4ccc(C(F)(F)F)cn4)[C@@H](O)C3)cc2)cn1` [Compound 169] was greater than 9.00. The result for `O=C1NCC[C@@H]1Nc1ccc(-c2ccc(S(=O)(=O)N3CC[C@@H](Nc4ccc(C(F)(F)F)cn4)[C@@H](O)C3)cc2)cn1` [Compound 170] reads greater than 9.00; that for `O=S(=O)(c1ccc(-c2ccc(N3CCC(O)CC3)nc2)cc1)N1CC[C@@H](Nc2ccc(C(F)(F)F)cn2)[C@@H](O)C1` [Compound 171], greater than 9.00; that for `O=S(=O)(c1ccc(-c2ccc(N3CCCC3)nc2)cc1)N1CC[C@@H](Nc2ccc(C(F)(F)F)cn2)[C@@H](O)C1` [Compound 172], greater than 9.00. As to `O=C1CN(c2cc(-c3ccc(S(=O)(=O)N4CC[C@@H](Nc5ccc(C(F)(F)F)cn5)[C@@H](O)C4)cc3)ccn2)CCN1` [Compound 173], the pIC50 was greater than 9.00. The result for `O=S(=O)(c1ccc(-c2ccc(N3CC(O)C3)nc2)cc1)N1CC[C@@H](Nc2ccc(C(F)(F)F)cn2)[C@@H](O)C1` [Compound 174] reads greater than 9.00.
